Broadly, the IC50 is the concentration at which inhibition is half-maximal. Lower therefore signals greater potency in that assay.

The test concerns the target T1, purified human HDAC6 (Homo sapiens, UniProt Q9UBN7).
T1 construct: purchased BPS Bioscience 5006
T1 sequence (Q9UBN7 1-1215): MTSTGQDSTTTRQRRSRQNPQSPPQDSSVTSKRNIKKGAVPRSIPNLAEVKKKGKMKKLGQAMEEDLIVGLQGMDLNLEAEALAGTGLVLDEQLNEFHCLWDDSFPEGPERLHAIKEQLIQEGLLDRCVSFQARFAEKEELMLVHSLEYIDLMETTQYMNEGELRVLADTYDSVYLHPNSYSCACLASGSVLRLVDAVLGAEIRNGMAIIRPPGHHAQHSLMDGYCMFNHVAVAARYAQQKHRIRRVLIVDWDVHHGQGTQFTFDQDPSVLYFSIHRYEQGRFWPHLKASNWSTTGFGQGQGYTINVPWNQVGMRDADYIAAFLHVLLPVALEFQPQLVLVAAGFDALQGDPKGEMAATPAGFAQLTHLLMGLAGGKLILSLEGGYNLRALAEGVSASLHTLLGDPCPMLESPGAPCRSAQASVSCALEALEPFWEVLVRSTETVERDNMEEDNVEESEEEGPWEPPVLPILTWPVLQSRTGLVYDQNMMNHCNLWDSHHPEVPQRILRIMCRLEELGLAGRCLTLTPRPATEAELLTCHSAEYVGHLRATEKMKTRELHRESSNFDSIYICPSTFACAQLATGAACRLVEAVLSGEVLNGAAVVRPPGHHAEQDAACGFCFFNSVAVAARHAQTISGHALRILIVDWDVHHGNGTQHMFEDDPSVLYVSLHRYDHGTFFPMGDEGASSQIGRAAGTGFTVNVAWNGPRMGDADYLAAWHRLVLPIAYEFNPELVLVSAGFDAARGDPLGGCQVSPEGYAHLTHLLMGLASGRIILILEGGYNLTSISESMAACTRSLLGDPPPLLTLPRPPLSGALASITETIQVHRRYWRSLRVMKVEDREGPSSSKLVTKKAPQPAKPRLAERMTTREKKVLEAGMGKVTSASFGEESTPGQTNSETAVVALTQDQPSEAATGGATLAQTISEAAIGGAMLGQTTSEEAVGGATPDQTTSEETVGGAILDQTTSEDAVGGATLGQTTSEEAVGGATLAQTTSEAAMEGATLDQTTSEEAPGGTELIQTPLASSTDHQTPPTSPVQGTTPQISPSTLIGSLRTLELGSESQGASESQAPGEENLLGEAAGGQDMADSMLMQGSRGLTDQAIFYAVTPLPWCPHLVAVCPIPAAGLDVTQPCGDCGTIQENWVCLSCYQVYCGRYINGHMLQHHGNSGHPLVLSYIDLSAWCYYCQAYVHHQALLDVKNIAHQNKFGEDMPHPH
In words: HDAC6 Enzyme Assay. The class given is biochemical. On the procedure: To measure the inhibition of HDAC6 activity, purified human HDAC6 (BPS Bioscience; Cat. No. 5006) is incubated with substrate Ac-Arg-Gly-Lys(Ac)-AMC peptide (Bachem Biosciences; Cat. No. I-1925) for 1 hour at 30° C. in the presence of test compounds or vehicle DMSO control. The reaction is stopped with the HDAC inhibitor trichostatin A (Sigma; Cat. No. T8552) and the amount of Arg-Gly-Lys-AMC generated is quantitated by digestion with trypsin (Sigma; Cat. No. T1426) and subsequent measurement of the amount of AMC released using a fluorescent plate reader (Pherastar; BMG Technologies) set at Ex 340 nm and Em 460 nm. Concentration response curves are generated by calculating the fluorescence increase in test compound-treated samples relative to DMSO-treated controls, and enzyme inhibition (IC50) values are determined from those curves.
For the compound `O=C(NO)c1ccc2c(c1)CCN(C(=O)c1ccc(C(F)(F)F)cc1)CC2` [Compound 87, N-hydroxy-3-[4-(trifluoromethyl)benzoyl]-2,3,4,5-tetrahydro-1H-3-benzazepine-7-carboxamide], the IC50 lay within 100 to 500 nM.
To `CC(C)CC(=O)N1CCc2cc(C(=O)NO)ccc2C1` [Compound 9, N-hydroxy-2-(3-methylbutanoyl)-1,2,3,4-tetrahydroisoquinoline-6-carboxamide] belongs 50 to 100 nM; to `O=C(NO)c1ccc2c(c1)CCN(C(=O)Nc1cccc(C(F)(F)F)c1)C2` [Compound 98, N^6-hydroxy-N^2-[3-(trifluoromethyl)phenyl]-3,4-dihydroisoquinoline-2,6(1H)-dicarboxamide], less than 50 nM.
`COc1cc(Cl)ccc1C(=O)N1Cc2ccc(C(=O)NO)cc2C1` [Compound 79, 2-(4-chloro-2-methoxybenzoyl)-N-hydroxyisoindoline-5-carboxamide] returned a concentration for half-maximal inhibition (IC50) of less than 50 nM.
The result for `CC(C)(C)C(=O)N1CCc2cc(C(=O)NO)ccc2C1` [Compound 2, 2-(2,2-dimethylpropanoyl)-N-hydroxy-1,2,3,4-tetrahydroisoquinoline-6-carboxamide] reads 50 to 100 nM.
On to `Cn1cccc1C(=O)N1CCc2cc(C(=O)NO)ccc2C1` [Compound 1, N-hydroxy-2-[(1-methyl-1H-pyrrol-2-yl)carbonyl]-1,2,3,4-tetrahydroisoquinoline-6-carboxamide], for which the IC50 was less than 50 nM.
With `O=C(NO)c1ccc2c(c1)CCCN(C(=O)c1ccc3occc3c1)C2` [Compound 252, 2-(1-benzofuran-5-ylcarbonyl)-N-hydroxy-2,3,4,5-tetrahydro-1H-2-benzazepine-7-carboxamide], the IC50 lay in the range of 100 to 500 nM.
Consider `O=C(NO)c1ccc2c(c1)CCN(CCOc1ccc(Cl)cc1)C2` [Compound 111, 2-[2-(4-chlorophenoxy)ethyl]-N-hydroxy-1,2,3,4-tetrahydroisoquinoline-6-carboxamide], for which the IC50 is 100 to 500 nM.
With `Cc1noc(C)c1CC(=O)N1CCc2cc(C(=O)NO)ccc2C1` [Compound 16, 2-[(3,5-dimethylisoxazol-4-yl)acetyl]-N-hydroxy-1,2,3,4-tetrahydroisoquinoline-6-carboxamide], the IC50 is 50 to 100 nM.
The result for `Cc1noc(C)c1S(=O)(=O)N1CCc2cc(C(=O)NO)ccc2C1` [Compound 53, 2-[(3,5-dimethylisoxazol-4-yl)sulfonyl]-N-hydroxy-1,2,3,4-tetrahydroisoquinoline-6-carboxamide] reads 100 to 500 nM.
The result for `O=C(NO)c1ccc2c(c1)CCN(C(=O)Nc1ccc(OC(F)(F)F)cc1)C2` [Compound 92, N^6-hydroxy-N^2-[4-(trifluoromethoxy)phenyl]-3,4-dihydroisoquinoline-2,6(1H)-dicarboxamide] reads less than 50 nM.
To `Cn1cccc1C(=O)N1Cc2ccc(C(=O)NO)cc2C1` [Compound 78, N-hydroxy-2-[(1-methyl-1H-pyrrol-2-yl)carbonyl]isoindoline-5-carboxamide] belongs less than 50 nM.
On to `Cn1cccc1C(=O)N1CCCc2cc(C(=O)NO)ccc2C1` [Compound 83, N-hydroxy-2-[(1-methyl-1H-pyrrol-2-yl)carbonyl]-2,3,4,5-tetrahydro-1H-2-benzazepine-7-carboxamide], for which the IC50 lay in the range of 100 to 500 nM.
Consider `O=C(NO)c1ccc2c(c1)CCN(C(=O)Cc1ccccc1)C2` [Compound 15, N-hydroxy-2-(phenylacetyl)-1,2,3,4-tetrahydroisoquinoline-6-carboxamide], for which the IC50 was in the range of 50 to 100 nM.
The compound `O=C(NO)c1ccc2c(c1)CCN(Cc1ccc(C(F)(F)F)cc1)C2` [Compound 66, N-hydroxy-2-[4-(trifluoromethyl)benzyl]-1,2,3,4-tetrahydroisoquinoline-6-carboxamide] returned a 50% inhibitory concentration (IC50) of 100 to 500 nM.
The compound `O=C(NO)c1ccc2c(c1)CCN(Cc1ccccc1)C2` [Compound 57, 2-benzyl-N-hydroxy-1,2,3,4-tetrahydroisoquinoline-6-carboxamide] came in with an IC50 of 50 to 100 nM.
The result for `CC(C)c1ccc(CC(=O)N2CCc3cc(C(=O)NO)ccc3C2)cc1` [Compound 35, N-hydroxy-2-[(4-isopropylphenyl)acetyl]-1,2,3,4-tetrahydroisoquinoline-6-carboxamide] reads 100 to 500 nM; that for `Cc1c(-c2csc(N3CCc4cc(C(=O)NO)ccc4C3)n2)sc2ccccc12` [Compound 76, N-hydroxy-2-[4-(3-methyl-1-benzothien-2-yl)-1,3-thiazol-2-yl]-1,2,3,4-tetrahydroisoquinoline-6-carboxamide], 50 to 100 nM.
Take `O=C(NO)c1ccc2c(c1)CCN(CCCOc1ccccc1)C2` [Compound 67, N-hydroxy-2-(3-phenoxypropyl)-1,2,3,4-tetrahydroisoquinoline-6-carboxamide]: the IC50 is 100 to 500 nM.
On to `O=C(NO)c1ccc2c(c1)CCN(CCC(=O)N1CCc3ccccc31)C2` [Compound 73, 2-[3-(2,3-dihydro-1H-indol-1-yl)-3-oxopropyl]-N-hydroxy-1,2,3,4-tetrahydroisoquinoline-6-carboxamide], for which the half-maximal inhibitory concentration (IC50) lay in the range of 50 to 100 nM.
Compound `O=C(NO)c1ccc2c(c1)CCCN(C(=O)c1cc3ccccc3s1)C2` [Compound 239, 2-(1-benzothien-2-ylcarbonyl)-N-hydroxy-2,3,4,5-tetrahydro-1H-2-benzazepine-7-carboxamide] had a concentration for half-maximal inhibition (IC50) of less than 50 nM.
For the compound `COc1ccc(C(=O)N2CCCc3cc(C(=O)NO)ccc3C2)cc1` [Compound 235, N-hydroxy-2-(4-methoxybenzoyl)-2,3,4,5-tetrahydro-1H-2-benzazepine-7-carboxamide], the IC50 is 100 to 500 nM.
`Cc1n[nH]c(C)c1S(=O)(=O)N1CCc2cc(C(=O)NO)ccc2C1` [Compound 54, 2-[(3,5-dimethyl-1H-pyrazol-4-yl)sulfonyl]-N-hydroxy-1,2,3,4-tetrahydroisoquinoline-6-carboxamide] yielded an IC50 of 50 to 100 nM.
Take `O=C(NO)c1ccc2c(c1)CCN(CCCc1ccccc1)C2` [Compound 62, N-hydroxy-2-(3-phenylpropyl)-1,2,3,4-tetrahydroisoquinoline-6-carboxamide]: the IC50 fell in the range of 100 to 500 nM.
`CC(C)(C)c1ccccc1NC(=O)N1CCc2cc(C(=O)NO)ccc2C1` [Compound 96, N^2-(2-tert-butylphenyl)-N^6-hydroxy-3,4-dihydroisoquinoline-2,6(1H)-dicarboxamide] gave a half-inhibitory concentration (IC50) of less than 50 nM.
The compound `O=C(NO)c1ccc2c(c1)CCCN(C(=O)c1cc3cc(Cl)ccc3o1)C2` [Compound 257, 2-[(5-chloro-1-benzofuran-2-yl)carbonyl]-N-hydroxy-2,3,4,5-tetrahydro-1H-2-benzazepine-7-carboxamide] showed a 50% inhibitory concentration (IC50) of 50 to 100 nM.
The result for `O=C(NO)c1ccc2c(c1)CCN(C(=O)C1CCOC1)C2` (stereo not drawn) [Compound 24, N-hydroxy-2-(tetrahydrofuran-3-ylcarbonyl)-1,2,3,4-tetrahydroisoquinoline-6-carboxamide] reads 100 to 500 nM.
`O=C(NO)c1ccc2c(c1)CCN(C(=O)Nc1ccc3c(c1)CCO3)C2` [Compound 89, N^2-(2,3-dihydro-1-benzofuran-5-yl)-N^6-hydroxy-3,4-dihydroisoquinoline-2,6(1H)-dicarboxamide]: the IC50 is less than 50 nM.
Regarding `O=C(NO)c1ccc2c(c1)CCN(S(=O)(=O)c1csc(-c3ccon3)c1)C2` [Compound 112, N-hydroxy-2-[(5-isoxazol-3-yl-3-thienyl)sulfonyl]-1,2,3,4-tetrahydroisoquinoline-6-carboxamide], the IC50 was 100 to 500 nM.
The result for `O=C(NO)c1ccc2c(c1)CCN(C(=O)Nc1ccccc1-c1ccccc1)C2` [Compound 102, N^2-biphenyl-2-yl-N^6-hydroxy-3,4-dihydroisoquinoline-2,6(1H)-dicarboxamide] reads less than 50 nM.
